Target: T1, Human HIF-PHD2 (Homo sapiens, UniProt Q9GZT9)
T1 construct: FLAG-tagged full length PHD2 expressed in and purified from baculovirus-infected Sf9 cells; FLAG; made in house; host or cells: baculovirus-infected Sf9 cells
Experiment: Inhibition of the hydroxylation of a HIF peptide by PHD2 (time resolved fluorescence, 384-well)
Format: biochemical
Conditions: FLAG-tagged full length PHD2; 0.2 μM 2-oxoglutarate, 0.5 μM HIF-1α peptide; 45 minutes at room temperature; read-out: Human HIF-PHD2 IC50

T1 sequence (Q9GZT9 whole entry): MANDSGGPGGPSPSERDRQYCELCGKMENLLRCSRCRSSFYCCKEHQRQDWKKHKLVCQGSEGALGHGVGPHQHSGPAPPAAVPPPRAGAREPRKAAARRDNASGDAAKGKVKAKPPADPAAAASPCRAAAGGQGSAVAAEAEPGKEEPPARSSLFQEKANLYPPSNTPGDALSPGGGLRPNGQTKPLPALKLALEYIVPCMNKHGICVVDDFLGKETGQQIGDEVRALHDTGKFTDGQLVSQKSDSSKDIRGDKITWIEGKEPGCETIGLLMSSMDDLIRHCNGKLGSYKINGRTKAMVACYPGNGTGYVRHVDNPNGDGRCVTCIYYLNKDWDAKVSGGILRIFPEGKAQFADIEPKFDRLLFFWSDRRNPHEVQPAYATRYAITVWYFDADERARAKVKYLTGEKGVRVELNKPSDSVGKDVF

| Compound | IC50 [nM] |
| --- | --- |
| N#Cc1ccc2c(O)c(C(=O)NCC(=O)O)c(=O)n3c2c1OCC3c1ccc(C(F)(F)F)cc1 (stereo not drawn) [Example 178, Ammonium 2-(10-cyano-7-hydroxy-5-oxo-3-(4-(trifluoromethyl)phenyl)-3,5-dihydro-2H-[1,4]oxazino[2,3,4-ij]quinoline-6-carboxamido)acetate] | 5.4 |
| CS(=O)(=O)c1ccc(C2COc3cccc4c(O)c(C(=O)NCC(=O)O)c(=O)n2c34)cc1 (stereo not drawn) [Example 183, Ammonium 2-(7-hydroxy-3-(4-(methylsulfonyl)phenyl)-5-oxo-3,5-dihydro-2H-[1,4]oxazino[2,3,4-ij]quinoline-6-carboxamido)acetate] | 15 |
| O=C(O)CNC(=O)c1c(O)c2cc(-c3ccn[nH]3)cc3c2n(c1=O)C(c1ccc(C(F)(F)F)cc1)CO3 (stereo not drawn) [Example 185, 2-(7-Hydroxy-5-oxo-9-(1H-pyrazol-5-yl)-3-(4-(trifluoromethyl)phenyl)-3,5-dihydro-2H-[1,4]oxazino[2,3,4-ij]quinoline-6-carboxamido)acetic acid] | 12 |

Same assay, conditions: FLAG-tagged full length PHD2; 0.2 μM 2-oxoglutarate, 0.5 μM HIF-1α peptide; 45 minutes at room temperature; read-out: MS m/z (M + 1)+ and human HIF-PHD2 IC50

| Compound | IC50 [nM] |
| --- | --- |
| O=C(O)CNC(=O)c1c(O)c2ccc(Cl)c3c2n(c1=O)C(c1ccc(C(F)(F)F)cc1)CO3 (stereo not drawn) [Example 165, 2-(10-chloro-7-hydroxy-5-oxo-3-(4-(trifluoromethyl)phenyl)-3,5-dihydro-2H-[1,4]oxazino[2,3,4-ij]quinoline-6-carboxamido)acetic acid] | 19 |
| O=C(O)CNC(=O)c1c(O)c2cc(Cl)cc3c2n(c1=O)C(c1ccc(C(F)(F)F)cc1)CO3 (stereo not drawn) [Example 166, 2-(9-chloro-7-hydroxy-5-oxo-3-(4-(trifluoromethyl)phenyl)-3,5-dihydro-2H-[1,4]oxazino[2,3,4-ij]quinoline-6-carboxamido)acetic acid] | 16 |
| O=C(O)CNC(=O)c1c(O)c2cccc3c2n(c1=O)C(c1cccc(C(F)(F)F)c1)CO3 (stereo not drawn) [Example 167] | 74 |
| O=C(O)CNC(=O)c1c(O)c2cccc3c2n(c1=O)C(c1nccs1)CO3 (stereo not drawn) [Example 168, 2-(7-hydroxy-5-oxo-3-(thiazol-2-yl)-3,5-dihydro-2H-[1,4]oxazino[2,3,4-ij]quinoline-6-carboxamido)acetic acid] | 19 |
| O=C(O)CNC(=O)c1c(O)c2c(Br)ccc3c2n(c1=O)C(c1ccc(C(F)(F)F)cc1)CO3 (stereo not drawn) [Example 169, 2-(8-bromo-7-hydroxy-5-oxo-3-(4-(trifluoromethyl)phenyl)-3,5-dihydro-2H-[1,4]oxazino[2,3,4-ij]quinoline-6-carboxamido)acetic acid] | 16 |
| O=C(O)CNC(=O)c1c(O)c2cccc3c2n(c1=O)C(c1cnco1)CO3 (stereo not drawn) [Example 173, 2-(7-hydroxy-3-(oxazol-5-yl)-5-oxo-3,5-dihydro-2H-[1,4]oxazino[2,3,4-ij]quinoline-6-carboxamido)acetic acid] | 14 |
| N#Cc1ccc(C2COc3cccc4c(O)c(C(=O)NCC(=O)O)c(=O)n2c34)cc1 (stereo not drawn) [Example 181, ammonium 2-(3-(4-cyanophenyl)-7-hydroxy-5-oxo-3,5-dihydro-2H-[1,4]oxazino[2,3,4-ij]quinoline-6-carboxamido)acetate] | 10 |
| CS(=O)(=O)c1cc2c3c(c1)c(O)c(C(=O)NCC(=O)O)c(=O)n3C(c1ccc(C(F)(F)F)cc1)CO2 (stereo not drawn) [Example 184, ammonium 2-(7-hydroxy-9-(methylsulfonyl)-5-oxo-3-(4-(trifluoromethyl)phenyl)-3,5-dihydro-2H-[1,4]oxazino[2,3,4-ij]quinoline-6-carboxamido)acetate] | 19 |

Other lines, results leading:

| IC50 [nM] | Compound |
| --- | --- |
| 5 | O=C(O)CNC(=O)c1c(O)c2ccc(Br)c3c2n(c1=O)C(c1cscn1)CO3 (stereo not drawn) [Example 170, 2-(10-bromo-7-hydroxy-5-oxo-3-(thiazol-4-yl)-3,5-dihydro-2H-[1,4]oxazino[2,3,4-ij]quinoline-6-carboxamido)acetic acid] |
| 5.4 | O=C(O)CNC(=O)c1c(O)c2cccc3c2n(c1=O)C(c1cnc(C(F)(F)F)s1)CO3 (stereo not drawn) [Example 171, 2-(7-hydroxy-5-oxo-3-(2-(trifluoromethyl)thiazol-5-yl)-3,5-dihydro-2H-[1,4]oxazino[2,3,4-ij]quinoline-6-carboxamido)acetic acid] |
| 7.3 | O=C(O)CNC(=O)c1c(O)c2c(F)ccc3c2n(c1=O)C(c1cncs1)CO3 (stereo not drawn) [Example 172, 2-(8-fluoro-7-hydroxy-5-oxo-3-(thiazol-5-yl)-3,5-dihydro-2H-[1,4]oxazino[2,3,4-ij]quinoline-6-carboxamido)acetic acid] |
| 3.8 | O=C(O)CNC(=O)c1c(O)c2ccc(F)c3c2n(c1=O)C(c1cncs1)CO3 (stereo not drawn) [Example 174, 2-(10-fluoro-7-hydroxy-5-oxo-3-(thiazol-5-yl)-3,5-dihydro-2H-[1,4]oxazino[2,3,4-ij]quinoline-6-carboxamido)acetic acid] |
| 2.8 | O=C(O)CNC(=O)c1c(O)c2c(F)cc(F)c3c2n(c1=O)C(c1cncs1)CO3 (stereo not drawn) [Example 175, 2-(8,10-difluoro-7-hydroxy-5-oxo-3-(thiazol-5-yl)-3,5-dihydro-2H-[1,4]oxazino[2,3,4-ij]quinoline-6-carboxamido)acetic acid] |
| 7.7 | O=C(O)CNC(=O)c1c(O)c2c(Br)ccc3c2n(c1=O)C(c1cncs1)CO3 (stereo not drawn) [Example 176, 2-(8-bromo-7-hydroxy-5-oxo-3-(thiazol-5-yl)-3,5-dihydro-2H-[1,4]oxazino[2,3,4-ij]quinoline-6-carboxamido)acetic acid] |
| 5.4 | O=C(O)CNC(=O)c1c(O)c2ccc(Br)c3c2n(c1=O)C(c1cncs1)CO3 (stereo not drawn) [Example 177, 2-(10-bromo-7-hydroxy-5-oxo-3-(thiazol-5-yl)-3,5-dihydro-2H-[1,4]oxazino[2,3,4-ij]quinoline-6-carboxamido)acetic acid] |
| 4.6 | N#Cc1cc2c3c(c1)c(O)c(C(=O)NCC(=O)O)c(=O)n3C(c1ccc(C(F)(F)F)cc1)CO2 (stereo not drawn) [Example 179, ammonium 2-(9-cyano-7-hydroxy-5-oxo-3-(4-(trifluoromethyl)phenyl)-3,5-dihydro-2H-[1,4]oxazino[2,3,4-ij]quinoline-6-carboxamido)acetate] |
| 2.9 | N#Cc1ccc2c3c1c(O)c(C(=O)NCC(=O)O)c(=O)n3C(c1ccc(C(F)(F)F)cc1)CO2 (stereo not drawn) [Example 180, ammonium 2-(8-cyano-7-hydroxy-5-oxo-3-(4-(trifluoromethyl)phenyl)-3,5-dihydro-2H-[1,4]oxazino[2,3,4-ij]quinoline-6-carboxamido)acetate] |
| 1.4 | N#Cc1ccc2c(O)c(C(=O)NCC(=O)O)c(=O)n3c2c1OCC3c1cncs1 (stereo not drawn) [Example 182, ammonium 2-(10-cyano-7-hydroxy-5-oxo-3-(thiazol-5-yl)-3,5-dihydro-2H-[1,4]oxazino[2,3,4-ij]quinoline-6-carboxamido)acetate] |

Reference: patent publication US9969752B2, “Inhibitors of HIF prolyl hydroxylase” (MERCK SHARP & DOHME CORP., priority 2014, dated 2018)
